From patent publication US20250032447A1, “USE OF UROLITHIN IN THE REMISSION PHASE OF A PRECEDING CANCER THERAPY” (SOCIETE DES PRODUITS NESTLE S.A., priority 2022, published 2025)
“Also recorded” adds a separate entry of the source.

Assays:
[1] = system: MC38 colorectal cancer cells; assay: MC38 tumor challenge in mice fed UroA enriched diet; format: in vivo, C57BL/6 mice
Source text: Cell line and in vitro culture: An MC38 colorectal cancer cell line and a B16 cell line were used. The MC38 colorectal cancer cell line (Corbett el al., Can Res, 1975) is a murine colon adenocarcinoma cell line from a C57BL/6 mouse. The cells are adherent and have a fibroblast morphology. MC38 cells will form tumors and metastases post implantation into syngeneic C57BL/6 mice or immunocompromised mice. The B16 melanoma is a murine tumor cell line used for research as a model for human skin cancers. Both MC38 and B16 cancer cell lines are commercially available.
The MC38 colorectal cancer cell line was maintained in RPMI 1640 media (Thermofisher) supplemented with 10% FBS (Gibco), 50 μM beta-mercaptoethanol (Thermofisher), 100 U/ml penicillin/streptomycin (Thermofisher), 1 mM Sodium Pyruvte (Thermofisher).
B57BL/6 mice were purchased from ENVIGO and housed in the animal facility of the University of Lausanne. One week upon arrival mice were fed ad libitum with Urolithin A enriched diet. Urolithin A diet was prepared as follow: 300 mg of Urolithin A (Novalix) was dissolved in DMSO (Applichem) and mixed with 1 kg of “2016 Irradiated Global 16% Rodent diet ground” (ENVIGO) corresponding to a dose of 50 mg/kg/day. For control diet, hereafter named DMSO diet, DMSO (Applichem) was mixed with 1 kg of “2016 Irradiated Global 16% Rodent diet ground” (ENVIGO). The diets were aliquoted in small balls and let them dry under sterile conditions. Mice were fed ad libitum for 4 weeks with DMSO diet or Urolithin A diet before tumor engraftment.
For tumor engraftment, each mouse was injected subcutaneously with 5×10^5 MC38 cancer cells or 1×10^5 B16 cancer cells into the right flank.
For the MC38 and B16 experiments 5 mice received ad libitum DMSO diet, and 5 mice received ad libitum Urolithin A enriched diet for 4 weeks before tumor injection. Mice were sacrificed at humane endpoint as established by the Swiss federal regulation and approved by cantonal authorities. Examples of humane endpoint are: tumor size exceeding […], loss of weight (15% of the previous time point) and sign of distress. […] These mice were named survivor mice.
To test this hypothesis, mice were fed ad libitum with UroA diet (see above, Urolithin A diet) and control diet (DMSO, see above) for 4 weeks. Colorectal cancer cells MC38 were subcutaneously injected in the right flank of the mice (FIG. 1A). Tumor volumes were estimated by using the formula: tumor volume=(length×width×width)/2.

[2] = system: MC38 colorectal cancer cells; assay: MC38 tumor re-challenge of survivor mice; format: in vivo
Source text: For re-challenge experiments, survivor mice were removed from the UroA diet and placed in conventional diet (diet provided by the animal facility of University of Lausanne) for one week. During this week one mouse developed tumor and was excluded from the experiment. The remaining 3 mice were subcutaneously injected with 5×10^5 MC38 cancer cells. At the same time, another 5 mice (named control cage) were subcutaneously injected with 5×10^5 MC38 cancer cells. This second tumor injection was done on the left flank of the mouse to discriminate between tumor arising from the first injection from tumor arising from the second, re-challenge, injection.
Then, it was tested whether UroA mediated tumor control was exerted through adaptive immune response. It was assumed as a working hypothesis that memory T cells with antitumoral activity would have been generated in the survivor hosts, which would promptly react against a second tumor graft. To test this hypothesis, survivor mice from the UroA group were injected after 7 weeks with the same cancer cell line (MC38) in the opposite flank (FIG. 2A). To exclude any possible contribution of UroA in tumor growth, the mice survivor mice and a control cage group were kept in conventional food without UroA for one week before tumor injection.

[3] = system: B16 melanoma; assay: B16 melanoma tumor challenge in mice fed UroA enriched diet; format: in vivo, B57BL/6 mice; conditions: 5 mice; Urolithin A enriched diet ad libitum 4 weeks before B16 injection
Experimental: The B16 cell line were maintained in DMEM+GlutaMAX (Thermofisher) supplemented with 10% FBS (Gibco), and 100 U/ml penicillin/streptomycin (Thermofisher). B57BL/6 mice were purchased from ENVIGO and housed in the animal facility of the University of Lausanne. One week upon arrival mice were fed ad libitum with Urolithin A enriched diet. Urolithin A diet was prepared as follow: 300 mg of Urolithin A (Novalix) was dissolved in DMSO (Applichem) and mixed with 1 kg of “2016 Irradiated Global 16% Rodent diet ground” (ENVIGO) corresponding to a dose of 50 mg/kg/day. For control diet, hereafter named DMSO diet, DMSO (Applichem) was mixed with 1 kg of “2016 Irradiated Global 16% Rodent diet ground” (ENVIGO). The diets were aliquoted in small balls and let them dry under sterile conditions. Mice were fed ad libitum for 4 weeks with DMSO diet or Urolithin A diet before tumor engraftment. For tumor engraftment, each mouse was injected subcutaneously with 5×10^5 MC38 cancer cells or 1×10^5 B16 cancer cells into the right flank. For the MC38 and B16 experiments 5 mice received ad libitum DMSO diet, and 5 mice received ad libitum Urolithin A enriched diet for 4 weeks before tumor injection. Mice were sacrificed at humane endpoint as established by the Swiss federal regulation and approved by cantonal authorities. […]

[4] = system: MC38 cells; assay: MC38 tumor challenge in immunodeficient NSG mice; format: in vivo; conditions: for effect on tumor growth rate and size: NSG immunodeficient mice, vs DMSO control
Source text: To validate that the Urolithin A supplementation enhances the adaptive immune response 5×10^5 MC38 cells were subcutaneously injected in the right flank of the immunodeficient mice NSG (NOD.Cg-Prkdc^sc^i^d II2rg^tm1Wil/SzJ) previously fed with Urolithin A enriched diet for 4 weeks. Tumor volumes were estimated by using the formula: tumor volume=(length×width×width)/2. 5 mice recede the DMSO diet and 5 mice received the Urolithin A enriched diet. Both the 5 mice receiving the DMSO diet and the 5 mice receiving the Urolithin A enriched diet developed tumors.

[5] = system: B16 melanoma; assay: B16 melanoma preventive effect, diet on/off; format: in vivo, B57BL/6 mice; conditions: day 17, 5×10^5 B16 cells s.c.
Source text: To test whether Urolithin A feeding would have a preventive effect by boosting the immune system inventors performed the following experiment. A less immunogenic tumor model B16 melanoma was chosen for this experiment. 10 mice received ad libitum DMSO diet (see above), and 10 mice received ad libitum Urolithin A enriched diet (see above) for 4 weeks. Then 5 mice from DMSO diet were placed in conventional diet (provided by Animal facility), this group was called DMSO on/off. The remaining 5 mice were kept in DMSO diet and named DMSO group. 5 mice from Urolithin diet were placed in conventional diet (provided by Animal facility), this group was called UroA on/off. The remaining 5 mice were kept in […]. After one week, 5×10^5 B16 cells were subcutaneously injected in the right flank of B57BL/6 mice. Tumor engraftment, diet treatment and re-challenge experiments were as described initially in Example 1.

[6] = Initial tests in mice fed diet supplemented with UroA; format: in vivo

O=c1oc2cc(O)ccc2c2ccc(O)cc12 [Urolithin A, 3,8-dihydroxyurolithin]
average tumor size ([1]; Exp1, 5 mice, Urolithin A enriched diet ad libitum 4 weeks (50 mg/kg/day) before s.c. injection of 5×10^5 MC38 cells): 50 mm^3
tumor engraftment and growth ([1]; Exp1 and Exp2, UroA enriched diet ad libitum vs DMSO diet): significantly reduced
mice that developed tumors bigger than 100 mm^3 ([1]; Exp2, out of 3 mice on Urolithin A enriched diet): one
mice that did not develop any tumor ([1]; MC38, mice fed Urolithin A diet): 4 out of 5
overall survival ([1]; UroA diet compared to DMSO diet, MC38 model): improved overall survival
average tumor size upon re-challenge ([2]; survivor mice re-injected with MC38 in opposite flank after 7 weeks, conventional food without UroA for one week before injection): 100 mm^3
survival upon re-challenge ([2]; survivor mice vs freshly challenged control cage group, listed as UroA): better tumor control capacity and survival; also recorded: improved overall survival
average tumor size [3]: 70 mm^3
effect on tumor growth rate and size [4]: no change in tumors growth rate and volume
effect on tumor growth rate and size ([4]; listed as UroA): no effect on tumor size
tumor size at last timepoint ([4]; day 18, NSG mice, Urolithin A enriched diet 4 weeks, 5×10^5 MC38 cells s.c.): 1000 mm³
average tumor size ([5]; UroA group (kept on diet)): 200 mm^3
average tumor size ([5]; UroA on/off group (4 weeks diet, then conventional diet one week before injection)): 200 mm^3
overall quality of HSCs [6]: increased
splenocytes count [6]: increased
